Experimental data as given in patent US12692253B2, “Antimicrobial compounds and methods” (Curza Global, LLC, priority 2019, dated 2026).
Like-named read-outs stand apart in the source and are kept apart here.

Tests used:
[1] = system: E. coli S30 extract (bacterial protein synthesis); experiment: E. coli S30 extract coupled transcription-translation luciferase assay (inhibition of bacterial protein synthesis); type: biochemical; settings: read-out: S30 IC50 (μM/% inhib.)
Summary of the method: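 Luciferase luminescence quantified inhibition of protein synthesis relative to water controls, with no-DNA reactions giving background. Compounds in 2-fold serial dilution (8 levels) were incubated 1 hour at 37 °C with E. coli S30 extract, amino acids and pBESTluc plasmid, then chilled to stop.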

[2] = target: Rabbit Reticulocyte Lysate (eukaryotic protein synthesis); experiment: Rabbit reticulocyte lysate luciferase assay (inhibition of eukaryotic protein synthesis); type: biochemical; settings: read-out: Rabbit reticulocyte IC50 (μM/% inhib.)
Summary of the method: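 Percent inhibition calculated against water-only controls from luminescence; background set by lysate lacking RNA. Compounds, 8-point 2-fold titration, incubated 90 minutes at 30° C with nuclease-treated rabbit reticulocyte lysate programmed with luciferase control RNA plus complete amino acids.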

[3] = system: A. baumannn (Ab); experiment: Broth microdilution minimum inhibitory concentration (MIC), CLSI; type: cell-based; settings: read-out: Ab + bicarb MIC
Summary of the method: (§1)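 Bacteria grown at 35±2 °C to 0.5 McFarland turbidity were added at 5×10^4 CFU/well to triplicate two-fold compound series (8 dilutions). Media were cation-adjusted Mueller-Hinton broth alone or with sodium bicarbonate (6.25 or 25 mM final) or heat-inactivated human serum (0–50%), per modified CLSI method.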

[4] = system: E. coli (Ec); experiment: as above; type: cell-based; settings: Escherichia coli, read-out: E. coli + bicarb MIC
Summary of the method: as §1

[5] = system: E. faecalis (Ef); experiment: as above; type: cell-based; settings: Enterococcus faecalis, read-out: Ef + bicarb MIC
Summary of the method: as §1

[6] = system: P. aeruginosa (Pa); experiment: as above; type: cell-based; settings: Pseudomonas aeruginosa, read-out: Pa MIC + bicarb
Summary of the method: as §1

[7] = system: S. aureus (Sa); experiment: as above; type: cell-based; settings: Staphylococcus aureus, read-out: Sa + bicarb MIC
Summary of the method: as §1

[8] = A. baumannn, growth medium with sodium bicarbonate
[9] = growth medium with sodium bicarbonate
[10] = class by IC50 or % inhibition @ 1 μM
[11] = growth medium supplemented with sodium bicarbonate

Compound	IC50 ([1]; % inhibition @ 1 μM) [µM]	IC50 ([2]; % inhibition @ 1 μM) [µM]	MIC [3, 8] [µg/mL]	MIC [4, 9] [µg/mL]	MIC [5, 9] [µg/mL]	MIC [6, 9] [µg/mL]	MIC [7, 9] [µg/mL]	IC50 [1, 10] [µM]	IC50 [2, 10] [µM]	MIC ([3]; Acinetobacter baumannii) [µg/mL]	MIC [4, 11] [µg/mL]	MIC [5, 11] [µg/mL]	MIC [6, 11] [µg/mL]	MIC [7, 11] [µg/mL]
CC(Cc1ccc(-n2ccc(NC(=O)N3CCN(C(=O)C(C)(C)N)CC3)nc2=O)cc1)NC1CC2(CC(N)C2)C1 (stereo not shown) [Compound 176]	≥ 1	≥ 1	> 32	< 8	8 to 32	> 32	< 8	–	–	–	–	–	–	–
CC(C)(N)C(=O)N1CCN(C(=O)Nc2ccn(-c3ccc(CCN4CC5CC5(CN)C4)cc3)c(=O)n2)CC1 (stereo not shown) [Compound 117]	–	–	–	–	–	–	–	< 0.5	≥ 1	8 to 32	< 8	< 8	8 to 32	< 8
C[C@](N)(CO)C(=O)N1CCN(C(=O)Nc2ccn(-c3ccc(CN4C[C@@H]5[C@@H](N)[C@@H]5C4)c(Cl)c3)c(=O)n2)CC1 [Compound 25]	–	–	–	–	–	–	–	< 0.5	≥ 1	> 32	< 8	> 32	> 32	< 8
CC(C)(N)C(=O)N1CCN(C(=O)Nc2ccn(-c3ccc(CCCN4C[C@@H]5[C@@H](N)[C@@H]5C4)cc3)c(=O)n2)CC1 [Compound 179]	≥ 1	≥ 1	> 32	8 to 32	> 32	> 32	< 8	–	–	–	–	–	–	–
CC(Cc1ccc(-n2ccc(NC(=O)N3CCN(C(=O)C(C)(C)N)C[C@H]3C)nc2=O)cc1)N1C[C@@H]2[C@@H](CN)[C@@H]2C1 (stereo partly shown) [Compound 124]	–	–	–	–	–	–	–	< 0.5	≥ 1	> 32	< 8	< 8	8 to 32	< 8
COC[C@@](C)(N)C(=O)N1CCN(C(=O)Nc2ccn(-c3ccc(CN4C[C@@H]5[C@@H](N)[C@@H]5C4)cc3)c(=O)n2)CC1 [Compound 53]	–	–	–	–	–	–	–	0.5 to 1	≥ 1	> 32	< 8	< 8	> 32	< 8
CC(C)(N)C(=O)N1CCN(C(=O)Nc2ccn(-c3ccc(CN4CCC5(CC4)CNC5)cc3)c(=O)n2)CC1 [Compound 83]	–	–	–	–	–	–	–	0.5 to 1	≥ 1	> 32	< 8	> 32	> 32	< 8
CC(N)[C@H]1[C@@H]2CN(Cc3ccc(-n4ccc(NC(=O)N5CCN(C(=O)C(C)(C)N)CC5)nc4=O)cc3)C[C@@H]21 (stereo partly shown) [Compound 73]	–	–	–	–	–	–	–	< 0.5	≥ 1	> 32	< 8	8 to 32	> 32	< 8
CC(Cc1ccc(-n2ccc(NC(=O)N3CCN(C(=O)C4(N)CCC4)CC3)nc2=O)cc1)N1C[C@@H]2[C@@H](CN)[C@@H]2C1 (stereo partly shown) [Compound 229]	≥ 1	≥ 1	> 32	8 to 32	> 32	> 32	> 32	–	–	–	–	–	–	–
CC(C)(N)C(=O)N1CCN(C(=O)Nc2ccn(-c3ccc(CN4CC5CCC(C4)C5N)cc3)c(=O)n2)CC1 (stereo not shown) [Compound 29]	–	–	–	–	–	–	–	0.5 to 1	≥ 1	> 32	< 8	8 to 32	> 32	< 8
CC(C)(N)C(=O)N1CCN(C(=O)Nc2ccn(-c3ccc(CCN4C[C@@H]5[C@@H](CN)[C@@H]5C4)c(F)c3)c(=O)n2)CC1 [Compound 127]	–	–	–	–	–	–	–	< 0.5	≥ 1	> 32	< 8	8 to 32	8 to 32	8 to 32
CC(C)(N)C(=O)N1CCN(C(=O)Nc2ccn(-c3ccc(CCCN4C[C@@H]5[C@@H](CN)[C@@H]5C4)cc3)c(=O)n2)CC1 [Compound 185]	≥ 1	≥ 1	> 32	< 8	8 to 32	> 32	< 8	–	–	–	–	–	–	–
CC(C)(N)C(=O)N1CCN(C(=O)Nc2ccn(-c3ccc(CCN4CC5CC(N)C5C4)cc3)c(=O)n2)CC1 (stereo not shown) [Compound 96]	–	–	–	–	–	–	–	< 0.5	≥ 1	> 32	< 8	< 8	8 to 32	< 8
